How the values were obtained:
EGFR = EGFR (Homo sapiens, UniProt P00533); experiment: EGFR kinase inhibition assay; assay type: biochemical
Procedure: (§1) Kinase activity and compound inhibition are investigated using one or more of the three assay formats described below. The ATP concentrations for each assay are selected to be close to the Michaelis-Menten constant (KM) for each individual kinase. Dose-response experiments are performed at 10 different inhibitor concentrations in a 384-well plate format. The data are fitted to four-parameter equation (2) below; where Y is the observed signal, X is the inhibitor concentration, Min is the background signal in the absence of enzyme (0% enzyme activity), Max is the signal in the absence of inhibitor (100% enzyme activity), IC50 is the inhibitor concentration at 50% enzyme inhibition and H represents the empirical Hill's slope to measure the cooperativity. Typically H is close to unity. Y=Min+(Max−Min)/(1+(X/IC50)^H) Equation (2) ^33P Phosphoryl Transfer Assay: […]
(§2) Greiner 384-well white, clear bottom, high binding plates are coated with 2 μg/well of protein or peptide substrate in a 50 μL volume overnight at ambient temperature. The coating buffer typically contains 40 μg/mL substrate, 22.5 mM Na2CO3, 27.5 mM NaHCO3, 150 mM NaCl and 3 mM NaN3. The coating solution is aspirated and the plates are washed once with 50 μL of assay buffer and padded dry. Subsequently compounds and enzymes are mixed with γ^33P-ATP (3.3 μCi/nmol) in a total volume of 20 uL in suitable assay buffers. The mixture is incubated at ambient temperature for 1.5-2.5 hrs and terminated by aspiration using a Molecular Devices EMBLA 96-head plate washer. The plates are subsequently washed 6-12 times with PBST or TBS buffer. Scintillation fluid (50 μl/well) is then added, the plates are sealed and activity assessed by liquid scintillation spectrometry using a Perkin Elmer MicroBeta TriLux.
(§3) In the LCCA assays, kinase activity is measured as the percent ATP consumed following the kinase reaction using luciferase-luciferin-coupled chemiluminescence. Greiner 384-well white, clear bottom, medium-binding plates are used for LCCA. Briefly, the kinase reaction is initiated by mixing compounds, ATP and kinase in a 20 uL volume. The mixture is incubated at ambient temperature for 2-4 hrs. At the end of the kinase reaction, a 20 uL luciferase-luciferin mix is added and the chemiluminescent signal is read using a Wallac Victor^2 reader. The luciferase-luciferin mix consists of 50 mM HEPES, pH 7.8, 8.5 ug/mL oxalic acid (pH 7.8), 5 (or 50) mM DTT, 0.4% Triton X-100, 0.25 mg/mL coenzyme A, 63 uM AMP, 28 ug/mL luciferin and 40,000 units of light/mL luciferase. For the LCCA assays, total ATP consumption has been standardized to 25-45% and the IC50 values correlates well with those determined by radiometric assays.
(§4) AlphaScreen technology is a proximity assay which utilizes the increase in fluorescent signal occurring when donor and acceptor beads are close in proximity. Biotinylated poly(Glu,Tyr) 4:1 is used as the kinase substrate, in conjunction with streptavidin-coated donor beads and anti-phosphortyrosine antibody PY100-coated acceptor beads. Upon phosphorylation, the peptide substrate can bind to both donor and acceptor beads giving rise to an increase in fluorescence. Compounds, ATP, biotinylated poly(Glu, Tyr) and kinases are mixed in a volume of 20 uL for 1 hr at ambient temperature using Greiner 384-well white clear bottom medium binding plates. Following incubation a 10 uL solution containing […] AlphaScreen beads, 75 mM Hepes, pH 7.4, 300 mM NaCl, 120 mM EDTA, 0.3% BSA and 0.03% Tween-20 is added to each well. After 2-16 hr incubation of the beads, plates are read in a Perkin Elmer AlphaQuest reader. The IC50 values correlates well with those of radiometric assays.

c-Kit = c-Kit (Homo sapiens, UniProt P10721); experiment: c-Kit biochemical assay (AlphaScreen)
Source text: as §4
c-Kit biochemical activity was assessed using AlphaScreen™ (Perkin Elmer) technology, described above. Test compounds, ATP, biotinylated poly(Glu, Tyr) and c-Kit kinase were combined in a volume of 20 μL in a 384-well white, medium binding microtiter plate (Greiner). Reaction mixtures were incubated for 1 hr at ambient temperature. Reactions were quenched by addition of 10 uL of […] AlphaScreen bead suspension containing 75 mM Hepes, pH 7.4, 300 mM NaCl, 120 mM EDTA, 0.3% BSA and 0.03% Tween-20. After 16 hr incubation at ambient temperature plates were read using an AlphaQuest reader (Perkin Elmer).

flt-3 = molecular target: T1, flt-3 (Homo sapiens, UniProt P36888); experiment: flt-3 Luciferase-Coupled Chemiluminescent Kinase assay (LCCA); assay type: biochemical
T1 construct: baculovirus expressed human Flt-3 kinase domain R571-S993
T1 sequence (P36888 571-993): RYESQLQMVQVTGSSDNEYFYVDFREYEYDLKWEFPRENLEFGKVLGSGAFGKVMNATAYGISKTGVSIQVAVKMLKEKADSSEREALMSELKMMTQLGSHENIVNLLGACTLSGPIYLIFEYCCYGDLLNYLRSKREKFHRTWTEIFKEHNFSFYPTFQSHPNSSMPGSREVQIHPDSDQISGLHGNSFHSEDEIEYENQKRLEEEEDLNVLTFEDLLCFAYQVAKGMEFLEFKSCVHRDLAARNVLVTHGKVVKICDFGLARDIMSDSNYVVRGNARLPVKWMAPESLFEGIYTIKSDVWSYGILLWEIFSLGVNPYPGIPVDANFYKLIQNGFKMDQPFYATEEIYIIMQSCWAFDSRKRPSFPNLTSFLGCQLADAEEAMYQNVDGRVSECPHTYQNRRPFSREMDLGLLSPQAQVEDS
Procedure: as §3
Flt-3 biochemical activity was assessed using a Luciferase-Coupled Chemiluminescent Kinase assay (LCCA) format. Kinase activity was measured as the percent ATP remaining following the kinase reaction. Remaining ATP was detected by luciferase-luciferin-coupled chemiluminescence. Specifically, the reaction was initiated by mixing test compounds, 5 μM ATP, 3 μM poly-EY and 5 nM Flt-3 (baculovirus expressed human Flt-3 kinase domain R571-S993) in a 20 uL assay buffer (20 mM Tris-HCL pH7.5, 10 mM MgCl2, 0.01% Triton X-100, 1 mM DTT, 2 mM MnCl2). The mixture is incubated at ambient temperature for 3 hours after which 20 uL luciferase-luciferin mix is added and the chemiluminescent signal read using a Wallac Victor^2 reader. The luciferase-luciferin mix consists of 50 mM HEPES, pH 7.8, 8.5 ug/mL oxalic acid (pH 7.8), 5 (or 50) mM DTT, 0.4% Triton X-100, 0.25 mg/mL coenzyme A, 63 uM AMP, 28 ug/mL luciferin and 40,000 units of light/mL luciferase.

EphB4 = molecular target: T2, EphB4 (Homo sapiens, UniProt P54760); experiment: EphB4 kinase inhibition assay; assay type: biochemical
T2 sequence (P54760 16-987): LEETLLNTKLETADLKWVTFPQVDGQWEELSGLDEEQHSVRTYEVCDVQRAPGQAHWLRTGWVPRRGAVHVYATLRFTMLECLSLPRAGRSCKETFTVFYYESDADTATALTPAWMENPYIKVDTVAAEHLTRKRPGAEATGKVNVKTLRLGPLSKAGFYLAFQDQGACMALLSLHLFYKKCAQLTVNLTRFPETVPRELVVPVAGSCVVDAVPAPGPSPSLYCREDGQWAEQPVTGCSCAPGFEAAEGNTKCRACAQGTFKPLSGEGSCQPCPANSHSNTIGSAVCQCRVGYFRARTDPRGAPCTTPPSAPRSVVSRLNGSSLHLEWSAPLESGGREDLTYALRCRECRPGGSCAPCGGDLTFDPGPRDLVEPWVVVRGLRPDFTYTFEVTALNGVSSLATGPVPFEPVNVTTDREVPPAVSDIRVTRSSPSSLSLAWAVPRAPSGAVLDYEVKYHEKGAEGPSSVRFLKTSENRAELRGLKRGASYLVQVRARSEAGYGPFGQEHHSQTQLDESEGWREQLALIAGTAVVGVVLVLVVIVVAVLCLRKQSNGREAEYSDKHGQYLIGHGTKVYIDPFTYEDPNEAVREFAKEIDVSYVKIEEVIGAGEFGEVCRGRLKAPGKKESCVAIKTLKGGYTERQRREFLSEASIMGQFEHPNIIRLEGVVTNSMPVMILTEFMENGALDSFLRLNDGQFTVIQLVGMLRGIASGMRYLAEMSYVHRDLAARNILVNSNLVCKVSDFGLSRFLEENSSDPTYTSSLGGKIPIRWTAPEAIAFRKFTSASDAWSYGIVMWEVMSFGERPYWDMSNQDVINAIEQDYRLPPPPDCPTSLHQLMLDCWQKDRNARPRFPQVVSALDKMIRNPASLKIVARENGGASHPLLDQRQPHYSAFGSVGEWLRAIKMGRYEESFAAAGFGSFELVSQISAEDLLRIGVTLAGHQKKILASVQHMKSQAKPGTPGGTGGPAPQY
Procedure: as §1, §2, §3, §4

Sequence of EGFR (P00533 25-1210, species assumed): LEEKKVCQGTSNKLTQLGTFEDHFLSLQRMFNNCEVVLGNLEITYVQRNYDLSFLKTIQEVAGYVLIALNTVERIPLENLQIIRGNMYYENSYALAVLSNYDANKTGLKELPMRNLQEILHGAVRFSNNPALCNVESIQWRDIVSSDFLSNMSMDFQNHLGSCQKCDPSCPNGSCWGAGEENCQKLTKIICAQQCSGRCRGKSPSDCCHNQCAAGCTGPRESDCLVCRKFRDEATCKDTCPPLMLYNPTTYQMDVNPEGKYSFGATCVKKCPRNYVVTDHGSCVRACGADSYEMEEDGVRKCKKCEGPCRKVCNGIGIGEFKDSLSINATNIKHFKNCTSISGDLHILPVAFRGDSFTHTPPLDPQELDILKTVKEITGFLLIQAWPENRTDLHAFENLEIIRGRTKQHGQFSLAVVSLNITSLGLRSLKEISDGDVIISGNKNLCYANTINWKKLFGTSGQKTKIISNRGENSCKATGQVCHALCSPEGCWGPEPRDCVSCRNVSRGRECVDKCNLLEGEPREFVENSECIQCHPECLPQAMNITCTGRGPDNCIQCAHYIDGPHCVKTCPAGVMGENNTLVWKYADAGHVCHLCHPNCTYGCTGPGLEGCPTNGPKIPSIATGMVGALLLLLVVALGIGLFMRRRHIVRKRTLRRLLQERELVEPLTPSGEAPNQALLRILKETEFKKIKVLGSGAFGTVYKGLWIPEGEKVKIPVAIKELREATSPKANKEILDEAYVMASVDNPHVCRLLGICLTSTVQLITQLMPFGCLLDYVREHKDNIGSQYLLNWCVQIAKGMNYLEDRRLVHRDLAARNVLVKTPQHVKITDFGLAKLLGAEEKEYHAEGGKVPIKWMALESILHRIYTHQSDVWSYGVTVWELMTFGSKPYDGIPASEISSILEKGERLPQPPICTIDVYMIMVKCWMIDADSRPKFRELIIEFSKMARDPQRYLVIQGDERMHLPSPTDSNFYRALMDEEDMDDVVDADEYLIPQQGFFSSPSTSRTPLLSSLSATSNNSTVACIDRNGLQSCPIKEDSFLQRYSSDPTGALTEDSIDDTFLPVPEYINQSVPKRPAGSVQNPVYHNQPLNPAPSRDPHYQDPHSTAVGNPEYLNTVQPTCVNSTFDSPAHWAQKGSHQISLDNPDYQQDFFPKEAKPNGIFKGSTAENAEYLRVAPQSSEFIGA
Sequence of c-Kit (P10721 26-976): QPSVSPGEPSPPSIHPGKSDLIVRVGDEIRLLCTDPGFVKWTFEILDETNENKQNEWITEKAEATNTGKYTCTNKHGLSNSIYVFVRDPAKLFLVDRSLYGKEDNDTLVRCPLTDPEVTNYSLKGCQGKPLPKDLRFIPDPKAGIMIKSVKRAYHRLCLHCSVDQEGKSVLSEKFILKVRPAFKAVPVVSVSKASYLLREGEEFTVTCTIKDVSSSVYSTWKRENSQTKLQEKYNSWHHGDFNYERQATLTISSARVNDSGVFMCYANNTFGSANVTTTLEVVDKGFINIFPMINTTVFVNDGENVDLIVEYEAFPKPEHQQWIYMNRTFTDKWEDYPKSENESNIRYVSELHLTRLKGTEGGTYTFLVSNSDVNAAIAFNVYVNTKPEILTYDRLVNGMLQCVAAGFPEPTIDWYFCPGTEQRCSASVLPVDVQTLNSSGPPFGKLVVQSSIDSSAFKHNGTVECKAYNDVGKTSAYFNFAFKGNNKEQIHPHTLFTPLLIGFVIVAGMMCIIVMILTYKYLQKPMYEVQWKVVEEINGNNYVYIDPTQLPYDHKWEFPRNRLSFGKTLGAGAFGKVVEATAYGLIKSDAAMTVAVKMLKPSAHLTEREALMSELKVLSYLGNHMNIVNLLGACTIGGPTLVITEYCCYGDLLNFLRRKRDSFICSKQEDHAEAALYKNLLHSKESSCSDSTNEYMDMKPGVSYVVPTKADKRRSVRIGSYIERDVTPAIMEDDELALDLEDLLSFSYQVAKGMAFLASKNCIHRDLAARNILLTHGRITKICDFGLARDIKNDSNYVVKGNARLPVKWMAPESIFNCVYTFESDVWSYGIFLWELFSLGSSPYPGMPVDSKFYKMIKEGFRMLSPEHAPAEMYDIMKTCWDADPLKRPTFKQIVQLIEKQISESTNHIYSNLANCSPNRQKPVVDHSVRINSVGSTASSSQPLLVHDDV

| Compound | IC50 (EGFR) | IC50 (c-Kit) | IC50 (flt-3) | IC50 (EphB4) |
| --- | --- | --- | --- | --- |
| CN1CCN(c2ccc3[nH]c(-c4cc(-c5ccc(NC(=O)Nc6cccc(C(F)(F)F)c6)cc5)[nH]n4)nc3c2)CC1 [Entry 15, N-(4-{3-[5-(4-methylpiperazin-1-yl)-1H-benzimidazol-2-yl]-1H-pyrazol-5-yl}phenyl)-N′-[3-(trifluoromethyl)phenyl]urea] | > 5 µM | < 0.05 µM | < 0.05 µM | 0.5 to 5 µM |
| CN1CCN(c2ccc(-c3cc(-c4ccc(NC(=O)Nc5ccc(Cl)c(C(F)(F)F)c5)cc4)[nH]n3)cc2)CC1 [Entry 16, N-[4-chloro-3-(trifluoromethyl)phenyl]-N′-(4-{3-[4-(4-methylpiperazin-1-yl)phenyl]-1H-pyrazol-5-yl}phenyl)urea] | > 5 µM | < 0.05 µM | < 0.05 µM | > 5 µM |
| CN1CCN(c2ccc3[nH]c(-c4cc(-c5ccc(NC(=O)Nc6ccc(Cl)cc6)cc5)[nH]n4)nc3c2)CC1 [Entry 18, N-(4-chlorophenyl)-N′-(4-{3-[5-(4-methylpiperazin-1-yl)-1H-benzimidazol-2-yl]-1H-pyrazol-5-yl}phenyl)urea] | > 5 µM | < 0.05 µM | < 0.05 µM | > 5 µM |
| CN1CCN(c2ccc3[nH]c(-c4cc(-c5ccc(NC(=O)Nc6cc(F)cc(F)c6)cc5)[nH]n4)nc3c2)CC1 [Entry 19, N-(3,5-difluorophenyl)-N′-(4-{3-[5-(4-methylpiperazin-1-yl)-1H-benzimidazol-2-yl]-1H-pyrazol-5-yl}phenyl)urea] | > 5 µM | < 0.05 µM | < 0.05 µM | > 5 µM |
| COc1cccc(NC(=O)Nc2ccc(-c3cc(-c4nc5cc(N6CCN(C)CC6)ccc5[nH]4)n[nH]3)cc2)c1 [Entry 20, N-[3-(methyloxy)phenyl]-N′-(4-{3-[5-(4-methylpiperazin-1-yl)-1H-benzimidazol-2-yl]-1H-pyrazol-5-yl}phenyl)urea] | > 5 µM | < 0.05 µM | < 0.05 µM | > 5 µM |
| CCN1CCN(c2ccc(-c3cc(-c4ccc(NC(=O)Nc5ccc(Cl)c(C(F)(F)F)c5)cc4)[nH]n3)cc2)CC1 [Entry 21, N-[4-chloro-3-(trifluoromethyl)phenyl]-N′-(4-{3-[4-(4-ethylpiperazin-1-yl)phenyl]-1H-pyrazol-5-yl}phenyl)urea] | > 5 µM | < 0.05 µM | < 0.05 µM | > 5 µM |
| CN1CCN(c2ccc3[nH]c(-c4cc(-c5ccc(NC(=O)Nc6cccc(F)c6)cc5)[nH]n4)nc3c2)CC1 [Entry 22, N-(3-fluorophenyl)-N′-(4-{3-[5-(4-methylpiperazin-1-yl)-1H-benzimidazol-2-yl]-1H-pyrazol-5-yl}phenyl)urea] | > 5 µM | < 0.05 µM | < 0.05 µM | > 5 µM |

Next, values leading:

| IC50 (EGFR) | IC50 (c-Kit) | IC50 (flt-3) | IC50 (EphB4) | Compound |
| --- | --- | --- | --- | --- |
| > 5 µM | < 0.05 µM | < 0.05 µM | > 5 µM | COc1cc(NC(=O)Nc2ccc(-c3cc(-c4nc5ccc(N6CCN(C)CC6)cc5[nH]4)n[nH]3)cc2)cc(OC)c1 [Entry 11, N-[3,5-bis(methyloxy)phenyl]-N′-(4-{3-[6-(4-methylpiperazin-1-yl)-1H-benzimidazol-2-yl]-1H-pyrazol-5-yl}phenyl)urea] |
| > 5 µM | < 0.05 µM | < 0.05 µM | > 5 µM | CN1CCN(c2ccc3[nH]c(-c4cc(-c5ccc(NC(=O)Nc6ccc(OC(F)(F)F)cc6)cc5)[nH]n4)nc3c2)CC1 [Entry 12, N-(4-{3-[5-(4-methylpiperazin-1-yl)-1H-benzimidazol-2-yl]-1H-pyrazol-5-yl}phenyl)-N′-{4-[(trifluoromethyl)oxy]phenyl} urea] |
| > 5 µM | < 0.05 µM | < 0.05 µM | > 5 µM | CN1CCN(c2ccc3[nH]c(-c4cc(-c5ccc(NC(=O)Nc6ccc(Cl)c(C(F)(F)F)c6)cc5)[nH]n4)nc3c2)CC1 [Entry 14, N-[4-chloro-3-(trifluoromethyl)phenyl]-N′-(4-{3-[5-(4-methylpiperazin-1-yl)-1H-benzimidazol-2-yl]-1H-pyrazol-5-yl}phenyl)urea] |
